Here are results for 5 compounds from patent US20180161310A1, “COMPOUNDS AND METHODS FOR THE TREATMENT OF NEUROLOGICAL DISORDERS” (Teleos Therapeutics, LLC, priority 2016, published 2018).

Structures are written as SMILES. “And” between values parts separate entries of the source, which are not always exact repeats. Identical values can stand only once. Like-named read-outs stand apart in the source and are kept apart here.

For data set [1], the system named is zebrafish larvae. It is filed as in vivo. As to conditions: 5 mM. The text has this:
In an effort to determine how pharmacological inhibition of KCC2 affects zebrafish behaviors, 7 days post-fertilization (dpf) zebrafish larvae can be treated with two analogs of the selective KCC2 inhibitor, VU0463271 and VU0240551, and their behavioral responses in a battery of behavioral assays can be assessed. These behavioral assays can include a series of visual and acoustic stimuli presented to larval zebrafish in various contexts and combinations to elicit robust and reproducible patterns of activity. For example, behavioral assays can include two acoustic-stimulus-response (ASR1 and ASR2) assays, six visual-stimulus-response (VSR1-VSR6) assays, and three assays that combine acoustic and visual stimulus responses (AVSR1-AVSR3). Together, such a battery of behavioral assays use six stimuli, including red light (600 nm), blue light (420 nm), violet light (405 nm), green light (525 nm), low-intensity sound (60 dB) and high-intensity sound (70 dB). Behavioral responses of the larval zebrafish can be measured by a motion index (MI) that quantifies the motor activity of at least about 8 zebrafish larvae in each well of a 96-well plate.
Referring to FIGS. 1A-1B, zebrafish behavioral profiles can include a battery of individual behavioral assays labeled ASR1, AVSR1, ASR2, VSR1, VSR2, VSR3, VSR4, AVSR2, VSR5, AVSR3, and VSR6, as described herein. These behavioral assays can be combined to form a Motion Index (MI), which is a quantification of the motor activity of at least about 8 zebrafish larvae in each well of a 96-well plate. As shown in the representative images of FIGS. 1A-1B, zebrafish larvae were treated with DMSO (control), VU0463271 (FIG. 1A), or pentylentetrazol or PTZ (FIG. 1B).
Treatment with increasing doses of VU0463271 induced a unique and dose-dependent profile of behavioral responses, detectable at 2.5 μM and 5 μM. […] This relatively low concentration of VU0463271 elicited a reproducible behavioral profile with altered sensitivity of the fish larvae to specific combinations of stimuli. […] The increased MI in the AVSR1 and AVSR3 assays due to VU0463271 treatment reflects a seizure-like hyperexcitability in the larval fish.
Additionally, seizures have been induced in 7 dpf zebrafish larvae using pentylentetrazol (PTZ) treatment, and motor and electroencephalographic (EEG) responses were consistent with seizure phenotypes.

For data set [2], the system named is PTZ-induced behavior in zebrafish larvae. The data set can be described thus: Suppression of PTZ-induced behavior in zebrafish larvae. It is filed as in vivo. The following applies: pre-treatment with 6 concentrations, then 5 mM PTZ. On the procedure:
Differences between behavioral profiles of larval zebrafish treated with KCC2 inhibitors and larval zebrafish treated with PTZ were investigated by evaluating the ability of traditional anti-seizure drugs to reverse their effects. Five drugs in at least six concentrations (by allocating 12 wells per concentration) were tested. These drugs included a benzodiazepine anxiolytic (diazepam), two AEDs that increase GABA levels in the synapse (tiagabine and valproate), a sodium channel blocker (phenytoin) and a synthetic neurosteroid GABAA positive allosteric modulator (PAM, ganaxolone).

Data set [3] concerns VU0240551-induced phenotype (KCC2 inhibition) in zebrafish larvae.
Data set [4] concerns cultured rat hippocampal neurons. In words: Gramicidin perforated patch clamp in cultured hippocampal neurons. It is filed as cell-based. The protocol:
Referring to FIG. 9, representative IV curves were generated (current-voltage curves) to characterise the intrinsic excitability of TT0023831 and TT0042607 in gramicidin perforated patch clamp studies, and to investigate whether the effects of the three hit compounds identified in the above-described suppressor screens translate to rodent models. The effects of these compounds were evaluated in cultured rat hippocampal neurons using the gramicidin perforated patch technique. The GABAA agonist, muscimol (1 μM), was used to measure EGABA values under basal conditions (FIG. 9). Perfusion of 30 μM TT0011235 potentiated GABAA-mediated currents, both muscimol-activated and endogenous post-synaptic potentials, and shifted the EGABA values (FIG. 9 and Appendix B). […] Treatment with 30 μM TT0042607 slowed the upstroke and repolarization, reduced the input resistant and thus, and reduced the number of open channels.

Data set [5] addresses Nav1.1 (Homo sapiens, UniProt P35498).
In data set [6] the test system is VU0463271-induced phenotype (KCC2 inhibition) in zebrafish larvae. The data set can be described thus: animal or person. The protocol: To quantify the ability of the same drugs to reverse (or “rescue”) the phenotype caused by either 2.5 μM VU0463271 or 5 μM VU0240551, a rescue score between 0 (no rescue) and 1 (maximal theoretical rescue) was calculated (FIG. 2C). A rescue score incorporates and quantifies the degree of phenotypic reversal and the level of sedation in each concentration tested (see Materials and Methods below).
A diverse collection of 37,000 uncharacterized small molecules were used in a suppressor screen against either 2.5 μM VU0463271 (27,000 compounds) or 5 μM VU0240551 (10,000 compounds), along with 3,700 control wells treated with DMSO alone and 3,700 control wells treated with the KCC2 inhibitor. Each well of a 96-well plate containing at least about 8 zebrafish larvae was treated with a library compound or DMSO followed by treatment with the KCC2 inhibitor. Behavioral profiles pre- and post-treatment with the KCC2 inhibitor were evaluated using the behavioral assay battery described herein, and a detailed quantitative readout of about 15,000 time points was generated for each well. These behavioral profiles were used to calculate a screening score for each library compound, which incorporates and quantifies the rescue score and sedation index (see Materials and Methods).
In some cases, small molecules that alter the KCC2 inhibition phenotype may reverse the behavioral phenotype back to the normal, but could also elicit a new undesired phenotype, which is different from a normal behavior. To discriminate between these possibilities, vector algebra was used to compare each behavioral profile to the behavioral profile of DMSO-treated larvae and defined a value for the phenotypic distance from DMSO. The screen score of each compound was then plotted against its averaged phenotypic distance from DMSO (FIG. 3A) and MI (FIG. 3B) to filter out compounds that elicit a profile that is very different from the control one and compounds that reduce overall activity, respectively.
The reproducibility of the effects and the active concentration ranges of the 30 hits selected, as described above, were determined. Their rescue efficacies were retested in at least six concentrations and their rescue scores were also recalculated.
TT0023831 and six analogs were tested at a range of doses from 2.5-320 uM in a behavioral assay designed to assess the ability of compounds to suppress the effects of KCC2 inhibition. The graphs of FIG. 11 indicate the degree of suppression of the KCC2-inhibited phenotype, where a score of 1 represents complete restoration of KCC2-treated zebrafish to normal. […] Table 4 summarizes the estimated EC50 values and peak effect values for each compound.
A large number of fertilized zebrafish eggs (up to 20,000 embryos per day) were collected from group matings of wild type Ekkwill/Singapore zebrafish. Embryos were raised in hatching jars at 28° C. on a 14/10 hour light/dark cycle until 3 days post fertilization (dpf), then transferred to an incubator under the same conditions until 7 dpf. Groups of eight larvae (7 dpf) were distributed into the wells of a clear flat bottom square well 96-well plates filled with E3 medium (300 μl). Larvae were then incubated at 25° C. on the bench top for one-hour chemical treatment and subsequent experiments.
A library containing 37,000 uncharacterized small molecules was purchased from Life Chemicals and dissolved in DMSO at a stock concentration of 10 mM.

For data set [7], the target named is Nav1.2 (Homo sapiens, UniProt Q99250).
Data set [8] concerns mouse 6 Hz 44 mA model. In words: Mouse 6 Hz 44 mA model of epilepsy. It is filed as in vivo. The following applies: animals protected from seizures / number tested. The protocol:
(§1) TT0023831 and TT0042607 were tested in mammalian models of epilepsy. The two compounds were tested in the mouse 6 Hz 44 mA model and the mouse maximal electroshock (MES) model. A range of doses was examined, and results were reported as the number of animals protected from seizures out of the number tested (Table 5).

Data set [9] deals with mouse maximal electroshock (MES) model. The data set can be described thus: Mouse maximal electroshock (MES) model. It is filed as in vivo. As to conditions: animals protected from seizures / number tested. On the procedure:
as §1

The target in data set [10] is Nav1.6 (Homo sapiens, UniProt Q9UQD0).
The mark [11] stands for this setting: 10-point CRC, TT002381 to a maximum of 100 μM.

Sequence of Nav1.2 (Q99250 whole entry): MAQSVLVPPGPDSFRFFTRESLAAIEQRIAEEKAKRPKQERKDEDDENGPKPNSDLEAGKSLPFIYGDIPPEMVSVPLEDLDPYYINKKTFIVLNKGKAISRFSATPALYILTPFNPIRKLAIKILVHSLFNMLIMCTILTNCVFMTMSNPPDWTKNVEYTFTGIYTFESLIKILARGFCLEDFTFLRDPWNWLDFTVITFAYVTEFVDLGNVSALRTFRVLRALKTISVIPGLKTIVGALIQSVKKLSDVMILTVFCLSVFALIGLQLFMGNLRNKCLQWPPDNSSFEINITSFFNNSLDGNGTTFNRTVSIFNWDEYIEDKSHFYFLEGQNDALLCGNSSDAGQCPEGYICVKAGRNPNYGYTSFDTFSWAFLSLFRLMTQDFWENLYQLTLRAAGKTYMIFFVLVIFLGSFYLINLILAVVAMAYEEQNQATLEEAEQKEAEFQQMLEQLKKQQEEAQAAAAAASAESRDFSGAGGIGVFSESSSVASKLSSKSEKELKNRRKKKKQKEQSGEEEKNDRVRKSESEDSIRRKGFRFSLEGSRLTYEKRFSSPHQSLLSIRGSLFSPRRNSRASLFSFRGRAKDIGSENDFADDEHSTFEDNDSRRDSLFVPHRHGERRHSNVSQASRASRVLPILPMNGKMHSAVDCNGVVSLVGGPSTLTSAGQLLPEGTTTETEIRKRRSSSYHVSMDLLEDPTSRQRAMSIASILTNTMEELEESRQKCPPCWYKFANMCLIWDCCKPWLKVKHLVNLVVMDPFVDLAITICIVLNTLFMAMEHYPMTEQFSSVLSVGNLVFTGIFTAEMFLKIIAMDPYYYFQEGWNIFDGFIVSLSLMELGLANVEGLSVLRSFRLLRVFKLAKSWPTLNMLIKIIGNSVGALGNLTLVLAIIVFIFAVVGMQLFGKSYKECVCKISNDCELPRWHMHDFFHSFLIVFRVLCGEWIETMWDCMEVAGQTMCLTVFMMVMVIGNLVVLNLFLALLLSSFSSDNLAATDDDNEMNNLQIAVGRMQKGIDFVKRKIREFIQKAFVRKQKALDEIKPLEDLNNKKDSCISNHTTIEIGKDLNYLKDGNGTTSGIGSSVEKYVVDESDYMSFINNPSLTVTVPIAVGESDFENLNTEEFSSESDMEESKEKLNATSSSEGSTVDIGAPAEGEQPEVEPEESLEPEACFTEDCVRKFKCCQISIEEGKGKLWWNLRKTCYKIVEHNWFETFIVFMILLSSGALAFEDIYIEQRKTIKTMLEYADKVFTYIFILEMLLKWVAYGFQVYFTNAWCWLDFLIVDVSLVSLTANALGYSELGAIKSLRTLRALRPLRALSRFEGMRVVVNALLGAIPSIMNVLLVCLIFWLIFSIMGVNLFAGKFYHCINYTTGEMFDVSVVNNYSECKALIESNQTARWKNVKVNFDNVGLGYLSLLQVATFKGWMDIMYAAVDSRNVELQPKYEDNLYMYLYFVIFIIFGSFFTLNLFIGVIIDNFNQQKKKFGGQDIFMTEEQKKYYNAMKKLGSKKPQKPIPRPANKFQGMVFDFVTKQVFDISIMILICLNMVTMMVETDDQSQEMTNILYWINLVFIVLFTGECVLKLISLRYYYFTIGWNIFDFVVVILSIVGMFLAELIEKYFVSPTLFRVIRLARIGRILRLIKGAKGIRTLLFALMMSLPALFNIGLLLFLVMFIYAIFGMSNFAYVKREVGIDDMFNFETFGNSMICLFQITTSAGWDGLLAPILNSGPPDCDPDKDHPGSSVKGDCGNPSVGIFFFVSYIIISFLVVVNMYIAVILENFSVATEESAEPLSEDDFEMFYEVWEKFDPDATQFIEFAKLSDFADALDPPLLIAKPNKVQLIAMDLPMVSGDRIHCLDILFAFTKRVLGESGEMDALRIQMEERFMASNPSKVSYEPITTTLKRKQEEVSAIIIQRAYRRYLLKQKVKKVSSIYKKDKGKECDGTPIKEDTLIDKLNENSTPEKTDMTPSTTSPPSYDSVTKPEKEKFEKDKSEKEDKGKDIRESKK
Sequence of Nav1.6 (Q9UQD0 whole entry): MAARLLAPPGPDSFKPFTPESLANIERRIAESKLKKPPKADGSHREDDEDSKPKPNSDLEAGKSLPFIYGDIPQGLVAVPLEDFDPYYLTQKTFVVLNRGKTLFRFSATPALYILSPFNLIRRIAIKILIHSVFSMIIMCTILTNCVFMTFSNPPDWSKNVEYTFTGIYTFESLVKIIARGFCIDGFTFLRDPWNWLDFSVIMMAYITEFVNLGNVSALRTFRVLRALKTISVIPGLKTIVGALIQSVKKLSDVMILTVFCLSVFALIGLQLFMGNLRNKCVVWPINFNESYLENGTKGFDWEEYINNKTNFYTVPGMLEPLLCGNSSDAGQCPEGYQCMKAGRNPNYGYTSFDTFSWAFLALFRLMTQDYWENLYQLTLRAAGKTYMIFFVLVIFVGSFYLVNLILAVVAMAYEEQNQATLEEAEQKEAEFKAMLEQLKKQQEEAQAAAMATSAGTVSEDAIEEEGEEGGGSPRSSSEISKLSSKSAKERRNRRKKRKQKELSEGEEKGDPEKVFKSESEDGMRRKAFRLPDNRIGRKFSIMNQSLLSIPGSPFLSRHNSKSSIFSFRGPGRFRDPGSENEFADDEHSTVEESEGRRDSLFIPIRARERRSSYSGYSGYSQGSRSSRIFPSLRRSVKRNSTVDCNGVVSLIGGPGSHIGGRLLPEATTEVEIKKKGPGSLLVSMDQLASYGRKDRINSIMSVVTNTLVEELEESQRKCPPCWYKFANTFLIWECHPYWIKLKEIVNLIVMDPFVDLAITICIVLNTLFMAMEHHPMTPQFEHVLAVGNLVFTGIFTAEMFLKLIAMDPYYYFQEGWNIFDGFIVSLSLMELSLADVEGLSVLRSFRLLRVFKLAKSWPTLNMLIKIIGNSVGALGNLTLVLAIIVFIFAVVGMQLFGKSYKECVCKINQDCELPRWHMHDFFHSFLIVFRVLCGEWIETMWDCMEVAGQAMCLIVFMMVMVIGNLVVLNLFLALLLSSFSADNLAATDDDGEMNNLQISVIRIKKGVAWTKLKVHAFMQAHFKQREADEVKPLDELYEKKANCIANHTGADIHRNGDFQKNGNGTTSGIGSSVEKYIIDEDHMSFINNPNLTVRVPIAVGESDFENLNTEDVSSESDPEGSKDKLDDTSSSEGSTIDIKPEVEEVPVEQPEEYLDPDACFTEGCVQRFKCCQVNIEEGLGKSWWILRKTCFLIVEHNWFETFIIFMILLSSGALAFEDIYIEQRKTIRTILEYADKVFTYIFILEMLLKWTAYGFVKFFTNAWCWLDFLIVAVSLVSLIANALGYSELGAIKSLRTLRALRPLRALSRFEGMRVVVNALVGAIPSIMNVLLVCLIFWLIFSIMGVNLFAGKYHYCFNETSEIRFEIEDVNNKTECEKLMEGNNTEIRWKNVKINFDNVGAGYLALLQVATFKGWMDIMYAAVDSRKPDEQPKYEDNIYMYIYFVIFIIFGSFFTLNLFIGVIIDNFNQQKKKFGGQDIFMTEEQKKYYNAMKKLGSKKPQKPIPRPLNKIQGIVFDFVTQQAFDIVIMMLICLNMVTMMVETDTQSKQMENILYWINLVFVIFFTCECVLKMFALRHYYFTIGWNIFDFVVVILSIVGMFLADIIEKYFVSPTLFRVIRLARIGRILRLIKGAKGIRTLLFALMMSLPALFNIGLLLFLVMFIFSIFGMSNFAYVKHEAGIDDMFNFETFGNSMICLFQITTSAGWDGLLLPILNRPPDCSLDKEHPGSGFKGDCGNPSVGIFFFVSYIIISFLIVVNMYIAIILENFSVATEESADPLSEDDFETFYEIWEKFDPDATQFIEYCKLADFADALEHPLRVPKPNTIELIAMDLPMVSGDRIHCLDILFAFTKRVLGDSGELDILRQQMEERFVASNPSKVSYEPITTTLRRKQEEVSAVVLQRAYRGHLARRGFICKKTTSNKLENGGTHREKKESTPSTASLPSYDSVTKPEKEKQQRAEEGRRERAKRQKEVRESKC

For the compound `C1CCc2nnnn2CC1` [PTZ, pentylentetrazol], the “activity and MI in response to multiple light and acoustic stimuli” value in [1] is “induced hyperactivity”.

Take `Cc1ccc(-c2nc(N3CCOCC3)sc2C(=O)NCC2CCCO2)cc1` (centres unmarked) [TT0011235]: the “suppression of PTZ-induced hyperactivity in response to the different stimuli” value in data set [2] is listed as “attenuated”. In addition, the “effect on overall MI” value in data set [3] (at concentrations higher than 20 μM) is reported as “inhibitory effect”. In data set [3] (tested at 2.5-80 μM), the “concentration of most effective phenotypic reversal” value turned out to be 20 µM and the “rescue of VU0240551-induced behaviors” value was “rescued”. In data set [4] (perfusion of 30 μM), the EGABA values entry is given as “shifted”; the “GABAA-mediated currents (muscimol-activated and endogenous post-synaptic potentials)” value is reported as “potentiated”.

As for `COc1cc(C)c(C(C)C)cc1S(=O)(=O)NCCN1CCOCC1` [TT0023831, 5-isopropyl-2-methoxy-4-methyl-N-(2-morpholinoethyl)benzene-sulfonamide], the “inhibition of Nav1.1” value in [5] (setting [11]) is on record as “concentration-dependent inhibition”. Besides, in data set [6] (80 μM, reduced the rescue score), the “overall motor activity of the larvae” value is on record as “reduced the overall motor activity”. Moreover, the EC50 in data set [6] (Danio rerio, read-out: in vivo EC50) came out at 5 µM. This compound also yielded a peak activity in [6] (concentration of peak effect, doses 2.5-320 uM, suppression of KCC2-inhibited phenotype in zebrafish) of 20 µM. Further, the “concentration of best phenotypic reversal” value in data set [6] (tested at 2.5-80 μM, high rescue scores) was 20 µM and 40 µM. Besides, the “suppression score dose response compared with other compounds as suppressor of the hyperexcitability phenotype” value in [6] (zebrafish, FIG. 8 / FIG. 10) is “outperform both tiagabine and valproic acid”. For the same compound, in data set [7] (setting [11]), the “inhibition of Nav1.2” value is given as “concentration-dependent inhibition”. The “Rescued (6 Hz model)” value in data set [8] (50 mg/kg) is listed as 0/8. The “Rescued (6 Hz model)” value in [8] (100 mg/kg) is given as 3/8. Moreover, the “Rescued (6 Hz model)” value in data set [8] (200 mg/kg) is listed as 7/8. For the same compound, in data set [9] (10 mg/kg), the “Rescued (MES model)” value is recorded as 0/4. Besides, in data set [9] (30 mg/kg), the “Rescued (MES model)” value is on record as 2/4. Also, the “Rescued (MES model)” value in data set [9] (100 mg/kg) is given as 2/4. Further, in data set [2], the “suppression of PTZ-induced hyperactivity in response to the different stimuli” value is given as “did not”. Besides, in data set [10] (setting [11]), the “inhibition of Nav1.6” value was “concentration-dependent inhibition”. Moreover, in data set [4], the “effect on GABAA-mediated currents” value was “neither TT0023831 nor TT0042607 appeared to have an effect”, the “firing rates of the cultured neurons” value was “reduced the firing rates” and the spike initiation entry was “delayed spike initiation”. In [4] (30 μM), the action potential threshold entry is reported as “raising”, the input resistant entry is given as “without changing”, the “number of open channels (open at rest)” value is “without affecting” and the rheobase entry was “increased”.

For `NC1=N[C@H](O)[C@H]2[C@H]3O[C@]4(O)O[C@@H]([C@@H](O)[C@@]2(N1)[C@@H]4O)[C@]3(O)CO` [TTX, tetrodotoxin], the “inhibition of Nav1.1” value in [5] is reported as “concentration-dependent inhibition”. The “inhibition of Nav1.2” value in data set [7] is “concentration-dependent inhibition”. Besides, the “inhibition of Nav1.6” value in data set [10] is listed as “concentration-dependent inhibition”.

Turning to `CCCCNc1ccc(C(=O)OCCN(C)C)cc1` [tetracaine], the “inhibition of Nav1.1” value in [5] (setting [11]) is “concentration-dependent inhibition”. In addition, the “inhibition of Nav1.2” value in [7] (setting [11]) is recorded as “concentration-dependent inhibition”. Besides, the “inhibition of Nav1.6” value in data set [10] (setting [11]) is recorded as “concentration-dependent inhibition”.
